Data taken from US12150940B2, “WASp-protecting small molecules, compositions, methods and uses thereof in the treatment of innate and acquired immune-related disorders or conditions” (BAR ILAN UNIVERSITY, priority 2016, dated 2024).

Assays:
[1] = tested on: Jurkat T cells; assay: Lymphocyte activation in Jurkat T cells (CD69 and activated LFA-1, flow cytometry); format: cell-based, human; conditions: Jurkat T cells stimulated with PMA and Ionomycin, vs control
Experimental: FIGS. 9A and 9B, show 1×10^6 Jurkat T cells/ml, stimulated with PMA and Ionomycin, were treated with WASp-binding SMC #6 or control. After incubation, the cells were stained with anti-activated LFA-1 antibody (KIM127), followed by staining with Alexa488-Fluor goat anti-mouse IgG1 secondary antibody (FIG. 9B). Cells were co-stained with PE-Cy5™-conjugated mouse anti-human CD69 and lymphocyte activation was measured by flow-cytometry as described in the Experimental procedures (FIG. 9A). Histograms of negative control versus SMC #6 are presented.
(§1) PBMCs or Jurkat cells (about 3×10^5 cells) were incubated for 4 h, at 37° C. with 50 ng/ml PMA and 250 ng/ml lonomycin, or 40 ng/ml PMA and 6 μM Ionomycin, respectively, or left untreated. After incubation, the cells were collected and stained with 1 μg/ml anti-active human LFA-1 antibody (purified from KIM127 hybridoma sup, ATCC Cat #: CRL-2838, Sigma) for 30 min in 37° C., followed by staining with Alexa488-Fluor goat anti-mouse IgG1 secondary antibody (Molecular Probes, Cat #: A-21121), 30 min on ice. Cells were then co-stained with PE-Cy5™-conjugated mouse anti-human CD69 (BD Pharmingen, Cat #: 555532) to measure lymphocyte activation.
Once activated, lymphocytes proliferate to effectively amplify the immune response. […]

[2] = target: T1, WASp (Homo sapiens, UniProt P42768); assay: WASp ubiquitylation in platelets (immunoprecipitation, anti-ubiquitin blot); format: cell-based; conditions: 15 min pre-incubation, vs activated untreated cells
T1 construct: endogenous in cells; host or cells: primary human platelets from healthy donors
T1 sequence (P42768 1-502): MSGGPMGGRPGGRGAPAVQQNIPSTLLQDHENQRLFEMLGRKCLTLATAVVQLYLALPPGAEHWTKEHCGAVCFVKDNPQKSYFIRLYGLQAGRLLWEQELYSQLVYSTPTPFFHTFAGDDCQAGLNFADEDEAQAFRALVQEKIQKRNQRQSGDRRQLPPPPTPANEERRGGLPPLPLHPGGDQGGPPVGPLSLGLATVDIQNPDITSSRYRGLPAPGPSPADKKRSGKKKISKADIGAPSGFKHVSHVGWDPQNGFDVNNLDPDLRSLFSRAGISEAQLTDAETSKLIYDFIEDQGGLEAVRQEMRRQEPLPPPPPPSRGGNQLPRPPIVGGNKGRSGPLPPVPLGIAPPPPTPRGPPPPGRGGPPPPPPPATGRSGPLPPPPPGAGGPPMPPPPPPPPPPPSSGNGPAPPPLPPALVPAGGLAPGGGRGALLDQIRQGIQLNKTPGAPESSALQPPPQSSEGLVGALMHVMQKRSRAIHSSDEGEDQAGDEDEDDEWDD
Experimental: FIGS. 12A and 12B. show freshly-isolated platelets that were either stimulated (+) with TRAP-6 (10 μM) or unstimulated (−) and pre-incubated at 37° C. for 15 min with either DMSO or the indicated WASp-binding SMCs (FIG. 12A—SMC #6; FIG. 12B—SMC #33), followed by lysis. Lysates were subjected to immunoprecipitation with anti-WASp antibody and were analyzed by western blotting with anti-ubiquitin (Ub) and with anti-WASp as precipitation control. Ubiquitylated WASp appears as a smear of bands above the molecular weight (MW) of 65 kDa with a prominent band at ˜81 kDa. Blots are representative of three independent experiments.
Immunoprecipitations and western blotting analysis were performed as previously described (Reicher et al, 2012). Briefly, platelets (2×10^8 cells per sample) were lysed by the addition of an equal volume of 2× lysis buffer (30 mM HEPES pH7.4, 300 mM NaCl, 2 mM phenylmethyl sulfonyl fluoride (PMSF), 2 mM sodium orthovanadate, 2% Triton X-100 and complete protease inhibitor tablets (Roche)). MEG-01 cells (2×10^7 cells per sample) were lysed in 1.25× lysis buffer. Proteasome activity was blocked by addition of MG132 (AdooQ) to platelets and Meg-01 cell medium at final concentration of 10 μM, for 1 h before the cells were harvested. […]

[3] = tested on: WAS−/−/WASp Y107C Jurkat T-cells; assay: Lymphocyte migration on ICAM-1/SDF-1α, WAS−/−/WASp Y107C cells; format: cell-based, human
Experimental: WASp knockout Jurkat T-cell lines that express only exogenous YFP-WASp R86C (WAS^−/−/WASp R86C) or Y107C (WAS^−/−/WASp Y107C) were pretreated with SMC #34 in comparison to cells treated with the control. Cells that completely lack WASp expression (WAS^−/−) were also treated with the control. Cellular migration was tracked over a 20-min period on ICAM-1/SDF-1α-coated cover glasses, as described in Experimental procedures.
Approximately 1×10^5 lymphocytes were seeded over chambered coverslips (LabTek) pre-coated with 6 μg/ml ICAM-1 and 2 μg/ml SDF-1α. Cells were incubated at 37° C., 5% CO2 and DIC images were acquired with the Zeiss Observer Z1 inverted microscope every 5 s for 20 min under a 20× objective lens using Zen software. The random movement (Displacement and velocity) of the cells was automatically tracked and analyzed using TrackMate plugin of ImageJ software. An individual trace was assigned to each of the analyzed cells.

[4] = tested on: WAS−/−/WASp R86C Jurkat T-cells; assay: Lymphocyte activation (CD69, flow cytometry) in WAS−/−/WASp R86C cells; format: cell-based, human; conditions: cells exclusively expressing YFP-WASp R86C, PMA and Ionomycin, vs control
Experimental: (§2) 1×10^6 WASp knockout Jurkat T-cell line that expresses only exogenous YFP-WASp harboring the common human WAS and XLT mutation, R86C (WAS−/−/WASp R86C) was pretreated with either negative control or SMC #34. Cells that completely lack WASp expression (WAS^−/−) were also treated with the control. The cells were then stimulated with PMA and Ionomycin. After incubation, the cells were stained with PE-Cy5™-conjugated mouse anti-human CD69 and lymphocyte activation was measured by flow cytometry as described in Experimental procedures. Histogram of negative control versus SMC #34 is presented.
as §1

[5] = tested on: WAS−/− Jurkat T-cells; assay: Lymphocyte activation (CD69, flow cytometry), WAS−/− cells; format: cell-based, human
Experimental: as §2, §1

Structure (SMILES) | lymphocyte activation (CD69, activated LFA-1) [1] | WASp ubiquitylation in active platelets [2] | migration ([3]; WAS−/−/WASp Y107C cells, vs control) | mean cell displacement ([3]; WAS−/−/WASp Y107C, 20 min, mean ± SE) | lymphocyte activation (CD69) [4] | lymphocyte activation (CD69) [5]
CC(=O)N[C@H]1C[C@@H](c2ccc3c(c2)nnn3C)O[C@@H](c2ccc(Cl)cc2)C1 [SMC #6, N-[(2R,4R,6S)-2-(4-chlorophenyl)-6-(1-methylbenzotriazol-5-yl)oxan-4-yl]acetamide] | upregulation | considerably decreased | – | – | – | –
Cc1ccccc1N(CC(=O)NCc1ccccc1)C(=O)CCC(=O)Nc1nccs1 [SMC #33, N′-[2-(benzylamino)-2-oxoethyl]-N′-(2-methylphenyl)-N-(1,3-thiazol-2-yl)butanediamide] | – | considerably decreased | – | – | – | –
CC1CCCC(C)N1C(=O)CSc1nnc(COc2cccc3cccnc23)o1 (stereo not shown) [SMC #34, 1-(2,6-dimethylpiperidin-1-yl)-2-[[5-(quinolin-8-yloxymethyl)-1,3,4-oxadiazol-2-yl]sulfanyl]ethanone] | – | – | significantly increased | 74.24±8.16 | upregulation of lymphocyte activation | restored the activation
